Assay results as given in patent publication US20240041042A1, “1-(PYRIDYL)-5-AZINYLPYRAZOLE DERIVATIVES, AND THEIR USE FOR CONTROL OF UNDESIRED PLANT GROWTH” (Bayer Aktiengesellschaft, priority 2020, published 2024).

Legend:
Format in all cases: in vivo
Setaria viridis (SETVI) [1] = assay: Pre-emergence herbicidal action against SETVI
Method in brief: (§1)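 Pre-emergence soil-surface spray of compound, formulated as wettable powder or emulsion concentrate, in aqueous suspension or emulsion with 0.5% additive (600 l/ha; rate 320 g/ha or less). Activity rated visually after roughly 3 weeks in the greenhouse as a percentage of untreated controls, 0% meaning no difference.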

[2] = tested on: Echinochloa crus-galli (ECHCG); assay: Pre-emergence herbicidal action against ECHCG
Method in brief: as §1

[3] = tested on: Echinochloa crus-galli (ECHCG); assay: Post-emergence herbicidal action against ECHCG
Method in brief: (§2)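 Rates were 320 g/ha or below, applied as aqueous WP/EC spray with 0.5% additive (600 l/ha) onto one-leaf-stage plants. About 3 weeks later in the greenhouse, damage was scored visually against untreated plants on a 0–100% scale, where 100% means plants died.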

[4] = tested on: Pharbitis purpurea (PHBPU); assay: Pre-emergence herbicidal action against PHBPU
Method in brief: as §1

Lolium rigidum (LOLRI) [5] = assay: Post-emergence herbicidal action against LOLRI
Method in brief: as §2

Avena fatua (AVEFA) [6] = assay: Post-emergence herbicidal action against AVEFA; details: visual rating about 3 weeks after treatment
Method in brief: as §2

Viola tricolor (VIOTR) [7] = assay: Pre-emergence herbicidal action against VIOTR
Method in brief: as §1

[8] = tested on: Alopecurus myosuroides (ALOMY); assay: Post-emergence herbicidal action against ALOMY; details: visual rating about 3 weeks after treatment vs untreated controls (100% = plants have died, 0% = like control plants)
Method in brief: as §2

[9] = tested on: Matricaria inodora (MATIN); assay: Pre-emergence herbicidal action against MATIN
Method in brief: as §1

Oryza sativa (ORYSA) = details: crop plant compatibility, 80 g/ha, effect in comparison to untreated controls
Method in brief: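 Visual rating (% effect vs. untreated plants; 100% = plant death) made about 3 weeks after treatment. Plants had been sprayed at one-leaf stage, 2–3 weeks post-sowing, with aqueous WP/EC preparations containing 0.5% additive, 600 l/ha water volume; a, b, c mark dose levels.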

[10] = tested on: Pharbitis purpurea (PHBPU); assay: Post-emergence herbicidal action against PHBPU
Method in brief: as §2

[11] = tested on: Polygonum convolvulus (POLCO); assay: Pre-emergence herbicidal action against POLCO
Method in brief: as §1

[12] = tested on: Abutilon theophrasti (ABUTH); assay: Pre-emergence herbicidal action against ABUTH; details: Dosage column 320 g/ha (title prints 3200 g/ha); scored visually after about 3 weeks; 100% = plants have died
Method in brief: as §1

Avena fatua (AVEFA) [13] = assay: Pre-emergence herbicidal action against AVEFA; details: visual scoring after about 3 weeks vs untreated controls
Method in brief: as §1

Viola tricolor (VIOTR) [14] = assay: Post-emergence herbicidal action against VIOTR
Method in brief: as §2

[15] = tested on: Verconica persica (VERPE); assay: Pre-emergence herbicidal action against VERPE
Method in brief: as §1

[16] = tested on: Alopecurus myosuroides (ALOMY); assay: Pre-emergence herbicidal action against ALOMY; details: scored visually after about 3 weeks, 100% = plants have died
Method in brief: as §1

Setaria viridis (SETVI) [17] = assay: Post-emergence herbicidal action against SETVI
Method in brief: as §2

[18] = tested on: Amaranthus retroflexus (AMARE); assay: Pre-emergence herbicidal action against AMARE; details: visual scoring after about 3 weeks vs untreated controls
Method in brief: as §1

[19] = tested on: Verconica persica (VERPE); assay: Post-emergence herbicidal action against VERPE
Method in brief: as §2

Lolium rigidum (LOLRI) [20] = assay: Pre-emergence herbicidal action against LOLRI
Method in brief: as §1

[21] = tested on: Matricaria inodora (MATIN); assay: Post-emergence herbicidal action against MATIN
Method in brief: as §2

Row | SMILES | Pre-emergence action against SETVI in % (Setaria viridis (SETVI) [1]; dosage 320 g/ha) | Pre-emergence action against ECHCG in % ([2]; dosage 80 g/ha) | Pre-emergence action against ECHCG in % ([2]; dosage 320 g/ha) | Post-emergence action against ECHCG in % ([3]; dosage 80 g/ha) | Post-emergence action against ECHCG in % ([3]; dosage 320 g/ha) | Pre-emergence action against PHBPU in % ([4]; dosage 80 g/ha) | Pre-emergence action against PHBPU in % ([4]; dosage 320 g/ha) | Post-emergence action against LOLRI in % (Lolium rigidum (LOLRI) [5]; dosage 320 g/ha) | Post-emergence action against AVEFA in % (Avena fatua (AVEFA) [6]; 320 g/ha) | Pre-emergence action against VIOTR in % (Viola tricolor (VIOTR) [7]; 320 g/ha, Viola tricolor) | Pre-emergence action against VIOTR in % (Viola tricolor (VIOTR) [7]; dosage 80 g/ha) | Post-emergence action against ALOMY in % ([8]; 320 g/ha) | Pre-emergence action against MATIN in % ([9]; dosage 80 g/ha) | Pre-emergence action against MATIN in % ([9]; dosage 320 g/ha) | Post-emergence action against PHBPU in % ([10]; dosage 320 g/ha) | Pre-emergence action against POLCO in % ([11]; dosage 80 g/ha) | Pre-emergence action against POLCO in % ([11]; dosage 320 g/ha) | Pre-emergence action against ABUTH [12] | Pre-emergence action against AVEFA in % (Avena fatua (AVEFA) [13]; 320 g/ha) | Post-emergence action against VIOTR in % (Viola tricolor (VIOTR) [14]; 80 g/ha) | also measured
1 | C[C@@H](Oc1nn(-c2nc(F)ccc2F)c(-c2cncc(F)c2)c1Br)C(=O)O [Example I-155] | 100% | 90% | 100% | 80% | 80% | 90% | 90% | 80% | 80% | 100% | 100% | 80% | 90% | 90% | 90% | 90% | 90% | 90% | 90% | 80% | Pre-emergence action against SETVI in % (Setaria viridis (SETVI) [1]; dosage 80 g/ha): 80%; Post-emergence action against ORYSA in % (Oryza sativa (ORYSA)): 10%; Post-emergence action against PHBPU in % ([10]; dosage 80 g/ha): 80%; Post-emergence action against VIOTR in % (Viola tricolor (VIOTR) [14]; 320 g/ha): 80%; Pre-emergence action against VERPE in % ([15]; dosage 320 g/ha): 100%; Pre-emergence action against ALOMY ([16]; 320 g/ha): 100%; Post-emergence action against SETVI in % (Setaria viridis (SETVI) [17]; dosage 80 g/ha): 80%; Post-emergence action against SETVI in % (Setaria viridis (SETVI) [17]; dosage 320 g/ha): 90%; Pre-emergence action against AMARE in % ([18]; 80 g/ha): 90%; Pre-emergence action against AMARE in % ([18]; 320 g/ha): 100%; Post-emergence action against VERPE in % ([19]; 320 g/ha, VERPE): 80%; Post-emergence action against VERPE in % ([19]; dosage 80 g/ha): 80%; Pre-emergence action against LOLRI in % (Lolium rigidum (LOLRI) [20]; dosage 80 g/ha): 90%; Pre-emergence action against LOLRI in % (Lolium rigidum (LOLRI) [20]; dosage 320 g/ha): 100%; Post-emergence action against MATIN in % ([21]; dosage 320 g/ha): 80%
2 | CCOC(=O)[C@@H](C)Oc1nn(-c2ncccc2F)c(-c2ccc(F)nc2)c1C(F)(F)F [Example I-308] | 100% | 100% | 100% | 90% | 90% | 90% | 90% | 100% | 90% | 100% | 100% | 100% | 100% | 100% | 90% | 100% | 100% | 100% | 100% | 90% | Post-emergence action against LOLRI in % (Lolium rigidum (LOLRI) [5]; dosage 80 g/ha): 90%; Post-emergence action against AVEFA in % (Avena fatua (AVEFA) [6]; 80 g/ha): 90%; Post-emergence action against ALOMY in % ([8]; 80 g/ha): 100%; Pre-emergence action against AVEFA in % (Avena fatua (AVEFA) [13]; 80 g/ha): 100%; Post-emergence action against VIOTR in % (Viola tricolor (VIOTR) [14]; 320 g/ha): 90%; Pre-emergence action against VERPE in % ([15]; dosage 80 g/ha): 100%; Pre-emergence action against VERPE in % ([15]; dosage 320 g/ha): 100%; Pre-emergence action against ALOMY ([16]; 80 g/ha): 100%; Pre-emergence action against ALOMY ([16]; 320 g/ha): 100%; Pre-emergence action against AMARE in % ([18]; 80 g/ha): 100%; Pre-emergence action against AMARE in % ([18]; 320 g/ha): 100%; Post-emergence action against VERPE in % ([19]; 320 g/ha, VERPE): 90%; Post-emergence action against VERPE in % ([19]; dosage 80 g/ha): 90%; Pre-emergence action against LOLRI in % (Lolium rigidum (LOLRI) [20]; dosage 80 g/ha): 100%; Pre-emergence action against LOLRI in % (Lolium rigidum (LOLRI) [20]; dosage 320 g/ha): 100%; Post-emergence action against MATIN in % ([21]; dosage 80 g/ha): 80%; Post-emergence action against MATIN in % ([21]; dosage 320 g/ha): 90%
